Values joined by “and” are separate entries in the source; they are usually repeats but may differ in a detail not shown here. Equal values may be shown once. Active and inactive are the calls of the source.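 The calls were made as follows: active = compounds giving half or more protection of infected cells from virus-caused growth loss, again on retest; inactive = the rest.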
Test system: CEM cells HIV-1 protection, formazan growth assay
Assay: NCI AIDS Antiviral Assay
Details: for IC50: measured here: growth of uninfected CEM cells
Summary of the method: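 Protection of CEM cells against HIV-1 was scored from cell growth (soluble formazan) across five concentrations, with parallel uninfected cells. Lack of protection may reflect toxicity.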

Compound | outcome | EC50 | IC50
NC(N)=NS(=O)(=O)c1ccc(NCc2c3ccccc3[n+]([O-])c3ccccc23)cc1 | inactive | – | –
CC1CC/C(=C\c2ccc(F)cc2)C2=C1C(c1ccc(F)cc1)n1c(s/c(=C/c3cccc(Br)c3)c1=O)=N2 (stereo not drawn) | inactive | – | –
CCN(CC)C1=Nc2ccccc2-n2ccnc2C1 | inactive | – | –
CC(=O)O[C@H]1CC[C@@]2(C)C(=CC[C@@H]3C2CC[C@]2(C)Nc4oncc4CC32)C1 (stereo partly drawn) | inactive | – | –
Clc1ccc(SSc2ccc(Cl)cc2)cc1 | – | > 200 µM | 3.31 µM and 5.13 µM
CCOP(=S)(N/N=C\C(C)(C)C1CCCCC1)OCC | – | > 200 µM | 30.9 µM
Cc1nc(-c2nc(C)c(C(=O)NNC(=O)C[n+]3ccccc3)s2)sc1C(=O)NNC(=O)C[n+]1ccccc1 | – | > 57.5 µM | > 57.5 µM
COc1cc(C)cc2c1C(=O)C(NC(C)=O)=CC2=O | – | > 200 µM | 11.7 µM
O=C1CSc2ccccc2-n2cccc21 | – | > 209 µM | 105 µM
O=[N+]([O-])c1ccccc1Oc1ccccc1 | – | 55 µM | 87.1 µM
CCOC(=O)/C(C#N)=C1\SS/C(=C(/C#N)C(=O)OCC)S1 | – | > 200 µM | 19.5 µM
OCC(CO)C1c2cccc3ccc4cccc1c4c23 | inactive | – | –
O=c1[nH]c2cc([N+](=O)[O-])ccc2nc1/C(=N/Nc1ccccc1)C(O)c1ccc(Cl)cc1Cl (stereo not drawn) | – | > 269 µM | 148 µM
NC(=O)C1(c2ccccc2)Nc2ccccc2S1 (stereo not drawn) | – | > 977 µM | 102 µM
Brc1ccc2nncc(N3CC3)c2c1 | inactive | – | –
COc1ccc(OC2OC(CO)C(OCc3ccccc3)C(OCc3ccccc3)C2OCc2ccccc2)cc1 (stereo not drawn) | – | > 200 µM | 12 µM
Cc1nc2n(C)c3ncn(Cc4ccccc4)c3c(=O)n2c1/C=C/C(C)C | – | > 33.1 µM | > 33.1 µM
CCn1c2ccccc2c2ccc3c(c21)C(=O)c1ccccc1C3=O | – | > 3.24 µM | > 3.24 µM
C=C(Br)N(CC)CC | – | > 251 µM | > 251 µM
Cc1cc(C)c(NS(=O)c2ccc(Cl)cc2)c(C)c1 (stereo not drawn) | – | > 33.9 µM | > 33.9 µM
Cc1cc(C)nc(NS(=O)(=O)c2ccc(Nc3c4ccccc4nc4c(C(=O)NNCCO)cccc34)cc2)n1 | – | > 200 µM | 33.1 µM
CC1(C)OC(=O)C(=Cc2ccc(C#N)cc2)C(=O)O1 | – | > 513 µM | 2.29 µM
CCCCC(C)(C/C=C/[C@@H]1[C@@H](C(O)CCCCCC(=O)OC)C(=O)C[C@H]1O[Si](C)(C)C(C)(C)C)O[Si](C)(C)C (stereo partly drawn) | inactive | – | –

Compound | outcome | EC50 | IC50
C=CCn1c(-c2ccc([N+](=O)[O-])cc2)cs/c1=N\C(P(=O)(O)O)P(=O)(O)O | – | > 200 µM | > 200 µM
CCCC(=O)NC1CCc2cc(OC)c(OC)c(OC)c2-c2ccc(OC)c(=O)cc21 (stereo not drawn) | – | > 2 µM | 0.0126 µM
CCOC(=O)C(O)(NC(=O)c1ccccc1F)C(F)(F)F (stereo not drawn) | inactive | – | –
COc1ccc2[nH]cc(CN3CCC(CO)(c4ccccc4)CC3)c2c1 | – | > 200 µM | 91.2 µM
Cc1c(N)nc(C(CC(N)=O)NCC(N)C(N)=O)nc1C(=O)NC(C(=O)NC(C)C(O)C(C)C(=O)NC(C(=O)NCCc1nc(-c2nc(C(=O)NCCCNCCCCN)cs2)cs1)C(C)O)C(OC1OC(CO)C(O)C(O)C1OC1OC(CO)C(O)C(OC(N)=O)C1O)c1cnc[nH]1 (stereo not drawn) | inactive | – | –
Cn1ccc(-c2cn(C)c3ccnn3c2=O)n1 | – | > 200 µM | > 200 µM
Cn1ncc2c(c1=O)Nc1ccccc1S2(=O)=O | – | > 112 µM | > 112 µM
CN1C(=O)c2cccc3cc([N+](=O)[O-])cc(c23)C1=O | – | > 53.7 µM | 10.2 µM
COc1ccc(-c2ccccc2)c2[nH]c3c(c12)CCNC3=O | inactive | – | –
COc1cc2c(cc1OC)[C@@H]([C@H](O)c1ccccc1)NCC2 | inactive | – | –
CC(C)(C)OC(=O)C1/C(=C/CBr)CN1C(=O)OC(C)(C)C (stereo not drawn) | – | > 200 µM | 3.98 µM
O=C1C(=C2CCCC2)CC/C1=C1/SS/C(=C2/CCC(=C3CCCC3)C2=O)S1 | – | > 200 µM | 120 µM
Cn1ccc(C(=O)N2CCSC2=S)c(OCc2ccccc2)c1=O | – | > 200 µM | 120 µM
CC1(C)CCC(C)(C)c2cc(C(=O)Nc3ccc(C(=O)O)cc3)ccc21 | inactive | – | 115 µM
CC(=O)COC(=O)CC(C)=O | inactive | – | –
Clc1ccc2sc3c(c2c1)CCNC3 | inactive | – | –
C=CC1CN2CCC1CC2C(=O)c1ccnc2ccccc12 (stereo not drawn) | – | > 200 µM | 97.7 µM
CCOc1ccc(C2=C(Cl)c3cc(OC)c(OC)cc3C2Cl)cc1 (stereo not drawn) | inactive | – | –
O=c1[nH]cc(S)c(=O)[nH]1 | – | 151 µM | > 200 µM
CCOC(=O)NC(=O)c1cn(CCCOC(=O)NCCCCCCNC(=O)OCCCn2c(=O)c(C(=O)NC(=O)OCC)cn(C)c2=O)c(=O)n(C)c1=O | – | > 33.9 µM | > 33.9 µM
CC12CC[C@H](O)C(C)(C)[C@H]1CC[C@](C)(O)C2COc1ccc2ccc(=O)oc2c1 (stereo partly drawn) | – | > 324 µM | 288 µM
COC(=O)C(=O)C(/C=N/C(=S)NC1CCCCC1)=C(\O)c1ccc(F)cc1 | – | > 200 µM | > 200 µM
CCCCCCSC[C@H](OC(C)=O)[C@@H](OC(C)=O)[C@@H](OC(C)=O)[C@@H](COC(C)=O)OC(C)=O | – | > 200 µM | 53.7 µM

Reference: PubChem BioAssay AID179 (DTP/NCI, 2004)
